ChEMBL document CHEMBL1145642, “Farnesyl pyrophosphate synthase enantiospecificity with a chiral risedronate analog, [6,7-dihydro-5H-cyclopenta[c]pyridin-7-yl(hydroxy)methylene]bis(phosphonic acid) (NE-10501): Synthetic, structural, and modeling studies” (Bioorg Med Chem Lett, 2008)

Target: T1, Farnesyl pyrophosphate synthase (Homo sapiens, UniProt P14324)
T1 sequence (P14324 whole entry): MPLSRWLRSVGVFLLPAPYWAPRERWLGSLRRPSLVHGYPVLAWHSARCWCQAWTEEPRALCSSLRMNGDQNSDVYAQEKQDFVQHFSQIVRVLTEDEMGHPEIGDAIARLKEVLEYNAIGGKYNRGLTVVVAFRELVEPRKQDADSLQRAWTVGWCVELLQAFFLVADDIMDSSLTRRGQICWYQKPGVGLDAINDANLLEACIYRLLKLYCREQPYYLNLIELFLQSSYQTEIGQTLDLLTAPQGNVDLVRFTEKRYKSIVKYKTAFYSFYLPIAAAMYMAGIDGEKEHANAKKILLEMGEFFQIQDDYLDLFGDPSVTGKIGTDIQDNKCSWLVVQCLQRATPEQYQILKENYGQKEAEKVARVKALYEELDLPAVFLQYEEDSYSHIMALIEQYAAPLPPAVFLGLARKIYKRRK

O=P(O)(O)C(O)(C1CCc2ccncc21)P(=O)(O)O (stereo unspecified)
IC50: 630 nM
